# Measurements taken from ChEMBL document CHEMBL6083275, “Discovery and evaluation of HW161023 as a potent and orally active AAK1 inhibitor” (Bioorg Med Chem Lett, 2024).
# Legend:
# [1] = Protein binding in dog plasma assessed as unbound fraction; type: ADME, cell-free, Canis lupus familiaris
# [2] = Protein binding in human plasma assessed as unbound fraction; type: ADME, cell-free
# [3] = molecular target: CYP2C9 (Homo sapiens, UniProt P11712); test: Inhibition of CYP2C9 (unknown origin) at 10 uM relative to control; type: ADME
# CYP2C9, sequence (P11712 whole entry): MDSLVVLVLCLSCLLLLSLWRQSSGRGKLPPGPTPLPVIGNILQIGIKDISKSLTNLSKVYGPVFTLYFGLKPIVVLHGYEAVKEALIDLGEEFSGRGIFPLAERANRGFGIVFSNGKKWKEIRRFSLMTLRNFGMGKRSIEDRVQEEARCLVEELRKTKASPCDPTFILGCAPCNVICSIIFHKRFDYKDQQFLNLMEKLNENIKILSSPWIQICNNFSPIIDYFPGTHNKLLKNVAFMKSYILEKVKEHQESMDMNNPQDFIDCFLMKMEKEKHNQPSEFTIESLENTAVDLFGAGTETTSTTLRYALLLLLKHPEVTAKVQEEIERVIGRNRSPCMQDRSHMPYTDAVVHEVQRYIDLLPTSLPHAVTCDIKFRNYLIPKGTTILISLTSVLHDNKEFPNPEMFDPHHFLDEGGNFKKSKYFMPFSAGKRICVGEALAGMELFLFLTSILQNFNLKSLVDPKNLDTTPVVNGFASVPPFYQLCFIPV
# [4] = Oral bioavailability in C57BL/6J mouse at 10 mg/kg; type: ADME, organism-based; details: in vivo
# [5] = Clearance in C57BL/6J mouse at 1 mg/kg, iv; type: ADME, organism-based; details: in vivo
# [6] = Protein binding in mouse plasma assessed as unbound fraction; type: ADME, cell-free
# [7] = molecular target: Voltage-gated inwardly rectifying potassium channel KCNH2 (Homo sapiens, UniProt Q12809); test: Inhibition of human ERG by patch clamp assay; type: toxicity
# Voltage-gated inwardly rectifying potassium channel KCNH2, sequence (Q12809 whole entry): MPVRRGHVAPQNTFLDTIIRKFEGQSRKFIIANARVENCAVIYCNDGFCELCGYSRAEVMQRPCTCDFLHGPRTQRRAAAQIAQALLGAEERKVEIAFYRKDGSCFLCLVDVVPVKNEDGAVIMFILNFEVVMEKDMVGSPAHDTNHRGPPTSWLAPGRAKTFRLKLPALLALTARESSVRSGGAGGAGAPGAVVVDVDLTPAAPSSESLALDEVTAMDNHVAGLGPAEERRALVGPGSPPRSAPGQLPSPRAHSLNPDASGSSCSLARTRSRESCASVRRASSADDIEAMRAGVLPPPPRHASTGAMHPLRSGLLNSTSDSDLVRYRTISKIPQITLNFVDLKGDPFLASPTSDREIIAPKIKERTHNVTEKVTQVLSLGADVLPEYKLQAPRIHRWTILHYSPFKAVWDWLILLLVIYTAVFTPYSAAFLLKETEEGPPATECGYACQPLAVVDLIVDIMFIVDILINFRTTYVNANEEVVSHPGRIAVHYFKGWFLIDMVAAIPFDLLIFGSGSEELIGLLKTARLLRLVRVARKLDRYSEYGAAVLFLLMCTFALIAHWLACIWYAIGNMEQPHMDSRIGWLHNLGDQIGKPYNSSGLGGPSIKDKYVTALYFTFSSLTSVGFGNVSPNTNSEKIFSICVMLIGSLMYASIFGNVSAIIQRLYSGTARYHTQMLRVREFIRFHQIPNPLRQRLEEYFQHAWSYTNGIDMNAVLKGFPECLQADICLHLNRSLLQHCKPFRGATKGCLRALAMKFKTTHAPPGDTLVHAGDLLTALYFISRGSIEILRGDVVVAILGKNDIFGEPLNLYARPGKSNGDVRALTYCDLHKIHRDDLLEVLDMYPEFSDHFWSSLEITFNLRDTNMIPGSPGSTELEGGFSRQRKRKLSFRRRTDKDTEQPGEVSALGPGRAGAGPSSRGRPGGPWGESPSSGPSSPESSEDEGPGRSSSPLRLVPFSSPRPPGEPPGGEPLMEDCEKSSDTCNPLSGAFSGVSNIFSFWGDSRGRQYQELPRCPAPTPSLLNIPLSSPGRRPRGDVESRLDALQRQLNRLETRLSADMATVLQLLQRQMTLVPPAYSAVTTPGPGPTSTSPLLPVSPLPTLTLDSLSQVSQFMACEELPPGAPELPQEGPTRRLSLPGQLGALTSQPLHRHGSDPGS
# [8] = Half-life in C57BL/6J mouse at 10 mg/kg, po; type: ADME, organism-based; details: in vivo
# [9] = Metabolic stability in rat liver microsomes assessed as half-life; type: ADME, Microsome
# [10] = AUC (0 to 24 hrs) in C57BL/6J mouse at 1 mg/kg, iv; type: ADME, organism-based; details: in vivo
# [11] = molecular target: T1, CYP3A4 (Homo sapiens, UniProt P08684); test: Inhibition of CYP3A4 (unknown origin) using midazolam as substrate at 10 uM relative to control; type: ADME; details: probe midazolam
# T1 sequence (P08684 whole entry): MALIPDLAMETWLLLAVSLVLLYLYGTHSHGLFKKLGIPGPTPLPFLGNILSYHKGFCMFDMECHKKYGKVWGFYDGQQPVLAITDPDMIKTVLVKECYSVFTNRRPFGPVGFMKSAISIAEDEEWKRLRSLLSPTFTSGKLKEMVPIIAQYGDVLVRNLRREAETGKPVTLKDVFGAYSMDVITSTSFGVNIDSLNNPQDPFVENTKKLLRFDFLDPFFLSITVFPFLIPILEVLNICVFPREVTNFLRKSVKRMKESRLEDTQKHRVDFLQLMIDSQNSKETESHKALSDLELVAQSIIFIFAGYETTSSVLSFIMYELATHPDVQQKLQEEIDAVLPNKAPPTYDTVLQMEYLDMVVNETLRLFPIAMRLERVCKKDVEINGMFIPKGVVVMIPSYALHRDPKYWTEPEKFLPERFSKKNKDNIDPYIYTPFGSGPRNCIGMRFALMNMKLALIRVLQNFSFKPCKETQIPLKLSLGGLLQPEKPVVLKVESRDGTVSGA
# [12] = Cmax in C57BL/6J mouse at 10 mg/kg, po; type: ADME, organism-based; details: in vivo
# [13] = Tmax in C57BL/6J mouse at 10 mg/kg, po; type: ADME, organism-based; details: in vivo
# [14] = Metabolic stability in dog liver microsomes assessed as half-life; type: ADME, Canis lupus familiaris, Microsome
# [15] = Half-life in C57BL/6J mouse at 1 mg/kg, iv; type: ADME, organism-based; details: in vivo
# [16] = molecular target: T1, CYP3A4; test: Inhibition of CYP3A4 (unknown origin) using testosterone as substrate at 10 uM relative to control; type: ADME; details: probe testosterone
# [17] = Apparent volume of distribution in C57BL/6J mouse at 1 mg/kg, iv; type: ADME, organism-based; details: in vivo, read-out: Vz
# [18] = Metabolic stability in human liver microsomes assessed as half-life; type: ADME, Microsome
# [19] = Metabolic stability in mouse liver microsomes assessed as half-life; type: ADME, Microsome
# [20] = molecular target: CYP2D6 (Homo sapiens, UniProt P10635); test: Inhibition of CYP2D6 (unknown origin) at 10 uM relative to control; type: ADME
# CYP2D6, sequence (P10635 whole entry): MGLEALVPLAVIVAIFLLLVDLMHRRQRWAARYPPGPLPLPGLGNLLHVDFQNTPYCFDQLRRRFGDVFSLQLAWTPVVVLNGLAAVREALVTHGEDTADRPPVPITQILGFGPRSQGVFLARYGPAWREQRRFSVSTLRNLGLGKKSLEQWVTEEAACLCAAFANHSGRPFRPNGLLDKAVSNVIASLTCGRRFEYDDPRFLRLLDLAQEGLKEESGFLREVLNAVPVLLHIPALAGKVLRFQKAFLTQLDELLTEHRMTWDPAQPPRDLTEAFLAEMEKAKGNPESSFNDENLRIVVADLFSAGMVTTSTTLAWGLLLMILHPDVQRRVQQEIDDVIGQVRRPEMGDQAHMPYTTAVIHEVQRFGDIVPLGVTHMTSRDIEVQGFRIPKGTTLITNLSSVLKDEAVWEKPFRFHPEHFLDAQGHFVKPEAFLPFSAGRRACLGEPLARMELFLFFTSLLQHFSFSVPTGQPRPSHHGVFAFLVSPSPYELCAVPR
# [21] = Cytotoxicity against human HepG2 cells; type: toxicity, cell-based
# [22] = Protein binding in rat plasma assessed as unbound fraction; type: ADME, cell-free
# [23] = AUC (0 to 24 hrs) in C57BL/6J mouse at 10 mg/kg, po; type: ADME, organism-based; details: in vivo
# [24] = molecular target: AP2-associated protein kinase 1 (Homo sapiens, UniProt Q2M2I8); test: Inhibition of AAK1 (unknown origin)
# AP2-associated protein kinase 1, sequence (Q2M2I8 whole entry): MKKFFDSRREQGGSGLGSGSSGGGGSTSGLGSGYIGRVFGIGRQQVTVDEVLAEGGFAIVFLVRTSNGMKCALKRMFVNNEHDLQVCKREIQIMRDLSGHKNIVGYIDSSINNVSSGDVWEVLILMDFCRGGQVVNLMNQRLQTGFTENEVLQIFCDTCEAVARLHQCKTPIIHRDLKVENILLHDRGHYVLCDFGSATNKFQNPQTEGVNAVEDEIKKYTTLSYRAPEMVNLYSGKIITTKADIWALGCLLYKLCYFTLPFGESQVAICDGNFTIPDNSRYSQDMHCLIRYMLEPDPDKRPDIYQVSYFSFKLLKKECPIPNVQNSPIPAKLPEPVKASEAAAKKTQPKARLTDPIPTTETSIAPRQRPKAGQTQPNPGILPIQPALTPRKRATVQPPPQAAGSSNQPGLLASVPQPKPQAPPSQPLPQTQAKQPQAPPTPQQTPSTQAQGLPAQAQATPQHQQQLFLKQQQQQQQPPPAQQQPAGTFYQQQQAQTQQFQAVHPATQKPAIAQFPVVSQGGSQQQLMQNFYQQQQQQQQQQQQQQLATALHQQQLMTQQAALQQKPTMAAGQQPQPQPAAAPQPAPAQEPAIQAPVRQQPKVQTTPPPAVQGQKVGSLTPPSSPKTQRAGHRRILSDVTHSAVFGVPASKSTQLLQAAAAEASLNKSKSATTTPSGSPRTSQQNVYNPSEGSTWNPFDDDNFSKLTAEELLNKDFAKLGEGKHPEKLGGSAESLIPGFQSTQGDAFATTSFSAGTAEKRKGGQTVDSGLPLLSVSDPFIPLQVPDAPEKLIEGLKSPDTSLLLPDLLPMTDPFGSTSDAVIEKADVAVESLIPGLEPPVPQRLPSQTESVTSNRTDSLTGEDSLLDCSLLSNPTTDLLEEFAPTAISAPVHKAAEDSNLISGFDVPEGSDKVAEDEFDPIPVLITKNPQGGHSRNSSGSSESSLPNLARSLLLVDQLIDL
smiles,measurement,setting,value
CC(C)C[C@](C)(N)COc1ccc(-c2ccnc(C(F)F)c2)n2cncc12,fraction unbound,[1],0.195
same,fraction unbound,[2],0.23
same,inhibition at 10 µM,[3],< 20%
same,bioavailability,[4],143%
same,clearance,[5],45 mL/min/kg
same,fraction unbound,[6],0.107
same,IC50,[7],30 µM
same,half-life,[8],3.27 h
same,half-life,[9],1.85 h
same,AUC(0-t),[10],318 ng·h/mL
same,inhibition at 10 µM,[11],< 20%
same,Cmax,[12],706 ng/mL
same,Tmax,[13],1 h
same,half-life,[14],1.72 h
same,half-life,[15],2.8 h
same,inhibition at 10 µM,[16],< 20%
same,Vd,[17],11 L/kg
same,half-life,[18],2.12 h
same,half-life,[19],2.23 h
same,inhibition at 10 µM,[20],81.1%
same,IC50,[21],43 µM
same,fraction unbound,[22],0.213
same,AUC(0-t),[23],4550 ng·h/mL
Cc1cnc2c(-c3ccnc(C(F)F)c3)ccc(OC[C@@](C)(N)CC(C)C)n12,IC50,[24],> 0.02 µM
CC(C)C[C@](C)(N)COc1ccc(-c2ccnc(C(F)F)c2)c2nc(C(F)F)cn12,IC50,[24],> 0.02 µM
CC(C)C[C@](C)(N)COc1ccc(-c2ccnc(C(F)F)c2)c2nncn12,IC50,[24],> 0.02 µM
CC(C)C[C@](C)(N)COc1ccc(-c2ccnc(C(F)F)c2)c2cnccc12,IC50,[24],> 0.05 µM
Cc1cn2c(OC[C@@](C)(N)CC(C)C)ccc(-c3ccnc(C(F)F)c3)c2n1,IC50,[24],> 0.02 µM
